Several values for one entry are separate records, joined by “and”; a condition that tells them apart may be missing. Equal entries are not always repeated. Inconclusive results and toxic doses are left out. The calls were made as follows: active = survival T/C of 150% or more; inactive = T/C below 125% in these data.
Test system: BDF1 mice, Lewis lung carcinoma iv, survival T/C
Assay: NCI In Vivo Anticancer Drug Screen. Data for tumor model Lewis Lung Carcinoma (intravenous) in B6D2F1 (BDF1) mice
Conditions: endpoint: median survival time, higher = longer survival
Experimental: The antitumor activity of compounds was measured in mice bearing transplantable tumors. Survival or tumor size were measured and the results are expressed as the measurement made in the treated group (T) divided by the measurement made in the vehicle treated control group (C). The tumor model used in this assay is Lewis Lung Carcinoma (intravenous) in B6D2F1 (BDF1) mice

[1] = dose: 6.25 mg/kg/injection, schedule: Q01DX009 (ip), vehicle: saline with Tween-80
[2] = dose: 12.5 mg/kg/injection, schedule: Q01DX009 (ip), vehicle: saline with Tween-80
[3] = dose: 25.0 mg/kg/injection, schedule: Q01DX009 (ip), vehicle: saline with Tween-80
[4] = dose: 50.0 mg/kg/injection, schedule: Q01DX009 (ip), vehicle: saline with Tween-80
[5] = dose: 100.0 mg/kg/injection, schedule: Q01DX009 (ip), vehicle: saline with Tween-80
[6] = dose: 200.0 mg/kg/injection, schedule: Q01DX009 (ip), vehicle: saline with Tween-80
[7] = dose: 25.0 mg/kg/injection, schedule: Q01DX009 (ip), vehicle: saline
[8] = dose: 50.0 mg/kg/injection, schedule: Q01DX009 (ip), vehicle: saline
[9] = dose: 12.5 mg/kg/injection, schedule: Q01DX009 (ip), vehicle: saline
[10] = dose: 100.0 mg/kg/injection, schedule: Q01DX009 (ip), vehicle: saline

Measured: T/C

C=CC(C)NC(=S)NNC(=S)NC (stereo unspecified)
inactive: dose: 25.0 mg/kg/injection, schedule: Q01DX009 (ip), vehicle: saline + alcohol 119 % of control | dose: 50.0 mg/kg/injection, schedule: Q01DX009 (ip), vehicle: saline + alcohol 110 % of control | dose: 100.0 mg/kg/injection, schedule: Q01DX009 (ip), vehicle: saline + alcohol 107 % of control | dose: 200.0 mg/kg/injection, schedule: Q01DX009 (ip), vehicle: saline + alcohol 104 % of control | dose: 400.0 mg/kg/injection, schedule: Q01DX009 (ip), vehicle: saline + alcohol 114 % of control

O=C(O)CC(NC(=O)CP(=O)(O)O)C(=O)O.[NH-]C1CCCCC1[NH-].[Pt+2] (stereo unspecified)
inactive: dose: 0.4 mg/kg/injection, schedule: Q01DX009 (ip), vehicle: dextrose 90 % of control | dose: 0.8 mg/kg/injection, schedule: Q01DX009 (ip), vehicle: dextrose 110 % of control | dose: 1.6 mg/kg/injection, schedule: Q01DX009 (ip), vehicle: dextrose 99 % of control | dose: 3.0 mg/kg/injection, schedule: Q01DX009 (ip), vehicle: dextrose 108 % of control | dose: 3.2 mg/kg/injection, schedule: Q01DX009 (ip), vehicle: dextrose 103 % of control | dose: 6.25 mg/kg/injection, schedule: Q01DX009 (ip), vehicle: dextrose 110 % of control

OCC1OC(n2cnc3cc(Cl)c(Cl)cc32)C(O)C1O (stereo unspecified)
inactive: [1] 96 % of control | [2] 94 % of control | [3] 110 % of control | [4] 110 % of control | [5] 100 % of control | [6] 90 % of control

COc1cc(C(=O)c2cocc2C(=O)c2ccc3c(c2)OCO3)cc(OC)c1OC
inactive: dose: 50.0 mg/kg/injection, schedule: Q01DX009 (ip), vehicle: Klucel (hydroxypropylcellulose) (HPC) 88 % of control | dose: 400.0 mg/kg/injection, schedule: Q01DX009 (ip), vehicle: Klucel (hydroxypropylcellulose) (HPC) 94 % of control

CCC1OCCN1C(C)C (stereo unspecified)
inactive: [7] 95 % of control | [8] 124 % of control

S=c1nc[nH]c2nc[nH]c12
inactive: dose: 7.5 mg/kg/injection, schedule: Q01DX009 (ip), vehicle: Klucel (hydroxypropylcellulose) (HPC) 97 % of control | dose: 15.0 mg/kg/injection, schedule: Q01DX005 (ip), vehicle: Klucel (hydroxypropylcellulose) (HPC) 98 % of control | dose: 15.0 mg/kg/injection, schedule: Q01DX009 (ip), vehicle: Klucel (hydroxypropylcellulose) (HPC) 113 % of control and 87 % of control | dose: 30.0 mg/kg/injection, schedule: Q01DX005 (ip), vehicle: Klucel (hydroxypropylcellulose) (HPC) 122 % of control | dose: 30.0 mg/kg/injection, schedule: Q01DX009 (ip), vehicle: Klucel (hydroxypropylcellulose) (HPC) 92 % of control and 108 % of control | dose: 60.0 mg/kg/injection, schedule: Q01DX005 (ip), vehicle: Klucel (hydroxypropylcellulose) (HPC) 93 % of control | dose: 120.0 mg/kg/injection, schedule: Q01DX005 (ip), vehicle: Klucel (hydroxypropylcellulose) (HPC) 103 % of control | dose: 240.0 mg/kg/injection, schedule: Q01DX005 (ip), vehicle: Klucel (hydroxypropylcellulose) (HPC) 95 % of control

NC(=O)c1ncn(C2OC(CO)C(O)C2O)n1 (stereo unspecified)
inactive: dose: 10.0 mg/kg/injection, schedule: Q01DX009 (ip), vehicle: saline 110 % of control | dose: 20.0 mg/kg/injection, schedule: Q01DX009 (ip), vehicle: saline 110 % of control | dose: 40.0 mg/kg/injection, schedule: Q01DX009 (ip), vehicle: saline 101 % of control | dose: 80.0 mg/kg/injection, schedule: Q01DX009 (ip), vehicle: saline 97 % of control | dose: 160.0 mg/kg/injection, schedule: Q01DX009 (ip), vehicle: saline 106 % of control

O=C(NO)c1cc(O)c(O)c(O)c1
inactive: dose: 25.0 mg/kg/injection, schedule: Q01DX009 (ip), vehicle: water 100 % of control | dose: 50.0 mg/kg/injection, schedule: Q01DX009 (ip), vehicle: water 100 % of control | dose: 100.0 mg/kg/injection, schedule: Q01DX009 (ip), vehicle: water 97 % of control | dose: 200.0 mg/kg/injection, schedule: Q01DX009 (ip), vehicle: water 97 % of control

CN1C(=O)C(=Cc2ccc(O)cc2)C(=O)N(C)C1=O
inactive: [2] 101 % of control | [3] 105 % of control | [4] 106 % of control | [5] 99 % of control | [6] 101 % of control | dose: 400.0 mg/kg/injection, schedule: Q01DX009 (ip), vehicle: saline with Tween-80 96 % of control

CC1=C(/C=C/C(C)=C/C=C/C(C)=C/CO)C(C)(C)CCC1
inactive: dose: 4.0 mg/kg/injection, schedule: Q01DX005 (ip), vehicle: saline with Tween-80 95 % of control | dose: 8.0 mg/kg/injection, schedule: Q01DX005 (ip), vehicle: saline with Tween-80 95 % of control | dose: 16.0 mg/kg/injection, schedule: Q01DX005 (ip), vehicle: saline with Tween-80 95 % of control | dose: 32.0 mg/kg/injection, schedule: Q01DX005 (ip), vehicle: saline with Tween-80 102 % of control | dose: 64.0 mg/kg/injection, schedule: Q01DX005 (ip), vehicle: saline with Tween-80 102 % of control | dose: 128.0 mg/kg/injection, schedule: Q01DX005 (ip), vehicle: saline with Tween-80 98 % of control

CC(C)C1OC(=O)/C=C/C=C/C=C/C=C/C=C/CC(O)C(C)C(O)CC(O)CC(O)CC(O)CC(O)CC(O)CC(O)/C=C/C1C (stereo unspecified)
inactive: dose: 6.25 mg/kg/injection, schedule: Q01DX009 (ip), vehicle: saline 111 % of control | [9] 104 % of control | [7] 111 % of control

C[C@H](N)C(=O)N[C@@H]1[C@H]2C(=C(O)C[C@@H](O)[C@@H]2O)C(=O)O[C@]1(C)C(Cl)Cl
inactive: dose: 0.38 mg/kg/injection, schedule: Q01DX009 (ip), vehicle: Klucel (hydroxypropylcellulose) (HPC) 101 % of control | dose: 0.75 mg/kg/injection, schedule: Q01DX009 (ip), vehicle: Klucel (hydroxypropylcellulose) (HPC) 102 % of control | dose: 1.5 mg/kg/injection, schedule: Q01DX009 (ip), vehicle: Klucel (hydroxypropylcellulose) (HPC) 108 % of control

[Cl][Pt+2][Cl].[NH-]CC1(C[NH-])CCCCC1
inactive: dose: 1.5 mg/kg/injection, schedule: Q01DX009 (ip), vehicle: saline 96 % of control | dose: 3.0 mg/kg/injection, schedule: Q01DX009 (ip), vehicle: saline 96 % of control | dose: 6.0 mg/kg/injection, schedule: Q01DX009 (ip), vehicle: saline 102 % of control

CCOC(=O)C1=C(C#N)C2(CCC(OCc3ccccc3)CC2)C(=O)O1 (stereo unspecified)
inactive: [9] 94 % of control | [7] 95 % of control | [8] 98 % of control | [10] 106 % of control | dose: 200.0 mg/kg/injection, schedule: Q01DX009 (ip), vehicle: saline 114 % of control | dose: 400.0 mg/kg/injection, schedule: Q01DX009 (ip), vehicle: saline 89 % of control

Nc1cc2c3c(cccc3c1)C(=O)N(CCN1CCCC1)C2=O
inactive: dose: 3.12 mg/kg/injection, schedule: Q01DX009 (ip), vehicle: saline with Tween-80 99 % of control | [1] 103 % of control | [2] 103 % of control | [3] 115 % of control | [4] 113 % of control | [5] 119 % of control

C=C1C(=O)OCC2C(C(=O)O)=CC3C(C)C(C)=CC123 (stereo unspecified)
inactive: dose: 2.5 mg/kg/injection, schedule: Q01DX009 (ip), vehicle: Klucel (hydroxypropylcellulose) (HPC) 87 % of control | dose: 5.0 mg/kg/injection, schedule: Q01DX009 (ip), vehicle: Klucel (hydroxypropylcellulose) (HPC) 92 % of control | dose: 10.0 mg/kg/injection, schedule: Q01DX009 (ip), vehicle: Klucel (hydroxypropylcellulose) (HPC) 95 % of control | dose: 40.0 mg/kg/injection, schedule: Q01DX009 (ip), vehicle: Klucel (hydroxypropylcellulose) (HPC) 91 % of control | dose: 80.0 mg/kg/injection, schedule: Q01DX009 (ip), vehicle: Klucel (hydroxypropylcellulose) (HPC) 92 % of control

NC(=O)C(F)C(N)C(=O)O (stereo unspecified)
inactive: [7] 99 % of control | [8] 100 % of control | [10] 103 % of control

Nc1ccn(C2OC(COP(=O)(O)O)C(O)C2O)c(=O)n1 (stereo unspecified)
inactive: dose: 16.0 mg/kg/injection, schedule: Q01DX009 (ip), vehicle: saline 121 % of control | dose: 32.0 mg/kg/injection, schedule: Q01DX009 (ip), vehicle: saline 106 % of control

Source: PubChem BioAssay AID274 (DTP/NCI, 2004)
